The target in assay [1] is T1, 5-hydroxytryptamine receptor 2B (Homo sapiens, UniProt P41595). The assay is described as follows: Displacement of [3H]mesulergine from human 5-HT2B receptor expressed in HEK293 cells. In kind it is cell-based.
The next assay deals with Mus musculus. The assay is described as follows: Reversal of 5-CT-induced hypothermic effect in po dosed mouse assessed as minimum effective dose. In kind it is functional. Conditions: for minimal effective dose: read-out: MED.
Assay [2] concerns the target 5-hydroxytryptamine receptor 7 (Homo sapiens, UniProt P34969). The assay is described as follows: Displacement of [3H]5-HT from human 5-HT7 receptor expressed in CHO cells. The class given is cell-based. (In a radioligand displacement assay an active substance lowers the binding of a labelled ligand.)
Assay [3] deals with Cavia porcellus. The assay can be described thus: Suppression of 5-HT-induced dural protein extravasation in po dosed Hartley guinea pig. The class given is functional, organism-based.
Assay [4] deals with Cavia porcellus. The assay is described as follows: Suppression of 5-HT-induced dural protein extravasation in Hartley guinea pig at 10 mg/kg, po. The class given is functional, organism-based. More on the design: dose 10 mg/kg.
Assay [5] addresses T1, 5-hydroxytryptamine receptor 2B. The assay can be described thus: Antagonist activity at human 5-HT2B receptor expressed in HEK293 cells assessed as [3H]PI metabolism. In kind it is cell-based.
The target of a further assay is D(2) dopamine receptor (Homo sapiens, UniProt P14416). The assay can be described thus: Binding affinity to dopamine D2 receptor (unknown origin).
The target in assay [6] is T2, Adrenergic receptor alpha-1 (Homo sapiens, UniProt P35348+P25100+P35368).
T2 sequence (P35348 whole entry): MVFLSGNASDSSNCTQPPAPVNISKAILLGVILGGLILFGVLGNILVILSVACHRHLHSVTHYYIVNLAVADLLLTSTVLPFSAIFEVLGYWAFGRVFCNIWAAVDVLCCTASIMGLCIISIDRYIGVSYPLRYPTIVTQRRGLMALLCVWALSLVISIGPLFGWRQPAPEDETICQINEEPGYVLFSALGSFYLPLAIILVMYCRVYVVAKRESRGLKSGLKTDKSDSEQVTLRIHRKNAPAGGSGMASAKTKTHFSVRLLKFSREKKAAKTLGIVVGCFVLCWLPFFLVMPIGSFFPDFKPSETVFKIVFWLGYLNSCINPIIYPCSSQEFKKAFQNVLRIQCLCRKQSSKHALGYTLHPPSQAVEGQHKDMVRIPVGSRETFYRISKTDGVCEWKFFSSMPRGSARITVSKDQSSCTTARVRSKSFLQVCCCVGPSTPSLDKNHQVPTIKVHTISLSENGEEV
T2 sequence (P25100 whole entry): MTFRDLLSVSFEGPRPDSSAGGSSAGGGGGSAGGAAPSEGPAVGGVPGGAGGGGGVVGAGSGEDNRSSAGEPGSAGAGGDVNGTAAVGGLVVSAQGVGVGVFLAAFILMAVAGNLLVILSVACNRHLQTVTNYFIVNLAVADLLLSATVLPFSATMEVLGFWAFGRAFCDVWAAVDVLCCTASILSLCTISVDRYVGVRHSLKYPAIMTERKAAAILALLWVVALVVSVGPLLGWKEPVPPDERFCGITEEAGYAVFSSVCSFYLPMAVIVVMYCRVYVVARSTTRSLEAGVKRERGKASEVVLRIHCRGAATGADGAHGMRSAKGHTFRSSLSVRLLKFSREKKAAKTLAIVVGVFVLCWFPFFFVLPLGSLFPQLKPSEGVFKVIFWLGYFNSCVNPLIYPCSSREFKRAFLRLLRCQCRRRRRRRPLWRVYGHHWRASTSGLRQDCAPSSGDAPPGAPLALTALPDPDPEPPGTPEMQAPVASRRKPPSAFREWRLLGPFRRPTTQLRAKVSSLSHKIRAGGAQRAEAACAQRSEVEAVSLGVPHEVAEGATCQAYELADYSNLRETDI
T2 sequence (P35368 whole entry): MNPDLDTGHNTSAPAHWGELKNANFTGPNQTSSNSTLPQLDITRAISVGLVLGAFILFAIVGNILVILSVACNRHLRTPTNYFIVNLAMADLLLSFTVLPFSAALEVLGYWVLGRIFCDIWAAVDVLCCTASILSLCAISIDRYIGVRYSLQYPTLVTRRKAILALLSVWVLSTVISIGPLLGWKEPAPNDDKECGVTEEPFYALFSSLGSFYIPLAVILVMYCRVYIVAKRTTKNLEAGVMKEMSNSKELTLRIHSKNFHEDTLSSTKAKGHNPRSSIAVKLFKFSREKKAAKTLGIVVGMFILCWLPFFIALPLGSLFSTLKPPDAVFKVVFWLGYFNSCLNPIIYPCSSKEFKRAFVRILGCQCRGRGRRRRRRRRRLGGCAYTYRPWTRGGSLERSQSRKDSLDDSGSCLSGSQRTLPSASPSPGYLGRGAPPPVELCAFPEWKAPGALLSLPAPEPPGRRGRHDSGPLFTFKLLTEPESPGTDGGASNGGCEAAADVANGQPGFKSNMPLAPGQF
The assay can be described thus: Binding affinity to alpha1-adrenergic receptor (unknown origin).

The target in assay [7] is T3, Muscarinic acetylcholine receptor M5 (Homo sapiens, UniProt P08912).
T3 sequence (P08912 whole entry): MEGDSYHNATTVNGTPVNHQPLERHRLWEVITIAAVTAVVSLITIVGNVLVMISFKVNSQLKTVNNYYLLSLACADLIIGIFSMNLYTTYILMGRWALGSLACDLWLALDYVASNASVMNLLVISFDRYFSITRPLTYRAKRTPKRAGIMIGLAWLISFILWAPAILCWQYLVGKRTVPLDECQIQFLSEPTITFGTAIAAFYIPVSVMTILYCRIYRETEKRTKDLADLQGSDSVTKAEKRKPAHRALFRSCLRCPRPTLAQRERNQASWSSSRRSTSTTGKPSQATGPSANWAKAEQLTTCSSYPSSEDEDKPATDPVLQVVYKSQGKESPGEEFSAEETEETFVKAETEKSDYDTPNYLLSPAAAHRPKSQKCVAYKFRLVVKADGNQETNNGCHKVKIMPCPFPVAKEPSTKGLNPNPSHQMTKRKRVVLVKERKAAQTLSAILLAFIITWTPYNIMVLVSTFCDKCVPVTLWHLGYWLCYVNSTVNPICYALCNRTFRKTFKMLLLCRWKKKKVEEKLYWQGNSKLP
The assay is described as follows: Binding affinity to muscarinic M5 receptor (unknown origin).

In assay [8] the target is T4, 5-hydroxytryptamine receptor 2C (Homo sapiens, UniProt P28335).
T4 sequence (P28335 whole entry): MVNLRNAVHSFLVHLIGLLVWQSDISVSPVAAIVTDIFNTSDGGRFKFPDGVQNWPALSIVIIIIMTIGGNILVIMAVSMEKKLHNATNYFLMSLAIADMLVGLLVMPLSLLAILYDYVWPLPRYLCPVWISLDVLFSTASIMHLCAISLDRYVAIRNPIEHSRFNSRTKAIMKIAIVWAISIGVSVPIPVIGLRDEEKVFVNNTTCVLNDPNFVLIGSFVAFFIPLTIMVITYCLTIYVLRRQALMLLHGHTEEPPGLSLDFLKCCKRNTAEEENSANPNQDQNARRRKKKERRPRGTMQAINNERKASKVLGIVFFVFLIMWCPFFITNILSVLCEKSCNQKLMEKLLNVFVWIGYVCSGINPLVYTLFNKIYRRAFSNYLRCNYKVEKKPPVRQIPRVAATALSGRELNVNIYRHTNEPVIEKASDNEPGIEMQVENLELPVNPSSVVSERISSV
The assay can be described thus: Binding affinity to serotonin 5-HT2C receptor (unknown origin).

The target of assay [9] is 5-hydroxytryptamine receptor 2A (Homo sapiens, UniProt P28223). The assay is described as follows: Binding affinity to serotonin 5-HT2A receptor (unknown origin).

12 molecules from ChEMBL document CHEMBL3351957, “Synthesis and pharmacological evaluation of optically pure, novel carbonyl guanidine derivatives as dual 5-HT2B and 5-HT7 receptor antagonists” (Bioorg Med Chem, 2014) can be followed below.

Each structure is given as a SMILES string. Activity calls are given as the source filed them. The calls are words filed in the database; no cut-off is given here.

The term Ki denotes the equilibrium dissociation constant of an inhibitor or competing ligand from its target. The low end stands for a stronger hold on the target, the high end for a looser hold on the target. The IC50 is the concentration that inhibits the measured activity by half.

T1 sequence (P41595 whole entry): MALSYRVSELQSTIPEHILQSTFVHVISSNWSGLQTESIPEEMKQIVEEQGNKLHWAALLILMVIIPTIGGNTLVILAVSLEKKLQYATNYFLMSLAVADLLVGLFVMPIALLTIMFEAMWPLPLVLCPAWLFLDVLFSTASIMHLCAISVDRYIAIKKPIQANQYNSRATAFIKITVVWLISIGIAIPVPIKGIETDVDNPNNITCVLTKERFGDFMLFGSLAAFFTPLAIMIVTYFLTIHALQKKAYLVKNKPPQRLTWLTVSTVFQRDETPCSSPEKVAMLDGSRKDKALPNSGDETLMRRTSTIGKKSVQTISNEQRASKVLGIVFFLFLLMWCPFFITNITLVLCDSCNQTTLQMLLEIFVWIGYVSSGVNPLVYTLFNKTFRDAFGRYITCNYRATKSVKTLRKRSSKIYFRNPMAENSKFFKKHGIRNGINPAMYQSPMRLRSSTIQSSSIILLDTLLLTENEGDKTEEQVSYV
5-hydroxytryptamine receptor 7, sequence (P34969 whole entry): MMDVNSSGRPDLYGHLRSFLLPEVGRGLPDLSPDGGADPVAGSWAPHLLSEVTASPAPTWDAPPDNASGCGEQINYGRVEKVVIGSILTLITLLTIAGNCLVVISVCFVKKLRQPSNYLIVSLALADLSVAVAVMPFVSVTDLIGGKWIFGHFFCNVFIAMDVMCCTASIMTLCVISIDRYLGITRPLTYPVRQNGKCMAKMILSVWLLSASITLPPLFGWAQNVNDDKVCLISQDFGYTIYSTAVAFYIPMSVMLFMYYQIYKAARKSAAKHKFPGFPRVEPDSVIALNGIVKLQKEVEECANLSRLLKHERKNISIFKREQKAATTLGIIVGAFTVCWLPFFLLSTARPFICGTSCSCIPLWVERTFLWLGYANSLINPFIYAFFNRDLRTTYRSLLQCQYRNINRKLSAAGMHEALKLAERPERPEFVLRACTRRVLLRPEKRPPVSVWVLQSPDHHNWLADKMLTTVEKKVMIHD
D(2) dopamine receptor, sequence (P14416 whole entry): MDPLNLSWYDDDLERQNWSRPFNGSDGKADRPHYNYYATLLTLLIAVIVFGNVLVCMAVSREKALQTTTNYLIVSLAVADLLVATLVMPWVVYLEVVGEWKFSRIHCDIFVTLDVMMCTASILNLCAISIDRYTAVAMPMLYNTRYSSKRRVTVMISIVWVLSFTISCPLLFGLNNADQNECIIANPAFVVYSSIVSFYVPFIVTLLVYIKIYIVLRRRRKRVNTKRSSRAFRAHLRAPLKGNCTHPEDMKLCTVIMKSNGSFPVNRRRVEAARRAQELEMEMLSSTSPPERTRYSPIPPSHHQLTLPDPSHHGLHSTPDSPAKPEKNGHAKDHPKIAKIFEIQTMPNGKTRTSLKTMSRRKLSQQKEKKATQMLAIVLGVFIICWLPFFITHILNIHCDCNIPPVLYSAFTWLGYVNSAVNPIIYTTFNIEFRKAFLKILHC
5-hydroxytryptamine receptor 2A, sequence (P28223 whole entry): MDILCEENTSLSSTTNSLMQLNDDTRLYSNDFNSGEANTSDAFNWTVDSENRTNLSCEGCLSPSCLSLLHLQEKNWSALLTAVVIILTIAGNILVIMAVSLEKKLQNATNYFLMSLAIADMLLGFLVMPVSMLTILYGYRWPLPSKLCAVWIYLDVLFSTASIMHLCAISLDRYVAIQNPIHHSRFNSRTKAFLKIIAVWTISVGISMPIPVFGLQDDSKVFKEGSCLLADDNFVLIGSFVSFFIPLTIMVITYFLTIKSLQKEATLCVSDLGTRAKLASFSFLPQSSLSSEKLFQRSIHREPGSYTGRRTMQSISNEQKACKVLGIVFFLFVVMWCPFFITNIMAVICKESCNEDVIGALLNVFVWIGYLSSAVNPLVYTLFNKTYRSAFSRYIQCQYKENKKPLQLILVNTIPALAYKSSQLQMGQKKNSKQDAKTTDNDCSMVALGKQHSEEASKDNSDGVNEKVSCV

`COCC1(OC)c2ccccc2-c2ccc(C(=O)N=C(N)N)cc21.Cl` (stereo not drawn): the Ki in [1] came to 2 nM; in assay [2], 0.76 nM. Moreover, the minimal effective dose in the assay with Mus musculus is over 30 mg/kg.
On to `CC1(O)c2ccccc2-c2ccc(C(=O)N=C(N)N)cc21.Cl` (stereo not drawn), for which, in the assay on Mus musculus, the minimal effective dose came to 30 mg/kg.
`NC(N)=NC(=O)c1ccc2c(c1)[C@@]1(CCCO1)c1ccccc1-2` had an inhibitory constant (Ki) in assay [1] of 5.1 nM. The inhibition entry with Cavia porcellus [3] was “Dose-dependent effect”. Besides, in the assay on Cavia porcellus [4], the inhibition result is “Active”. For the same molecule, the IC50 in assay [5] is 73 nM.
As to `CCC1(OC)c2ccccc2-c2ccc(C(=O)N=C(N)N)cc21.Cl` (stereo not drawn), the Ki in assay [1] was 4.8 nM; in [2], 0.6 nM. The minimal effective dose in the assay on Mus musculus worked out at 10 mg/kg.
Regarding `CCC1(O)c2ccccc2-c2ccc(C(=O)N=C(N)N)cc21` (stereo not drawn), the Ki in assay [1] came to 41 nM; in assay [2], 1.2 nM.
`Cl.NC(N)=NC(=O)c1ccc2c(c1)C1(CCCC1)c1ccccc1-2`: the Ki stood at 1.7 nM in assay [1] and 1.8 nM in assay [2]. Besides, the minimal effective dose with Mus musculus was at most 100 mg/kg.
`NC(N)=NC(=O)c1ccc2c(c1)C1(CCOCC1)c1ccccc1-2`: the values for the Ki in [1] and in assay [2] were 9.1 nM and 1.3 nM, respectively.
Turning to `Cl.NC(N)=NC(=O)c1ccc2c(c1)C1(CCCO1)c1ccccc1-2` (stereo not drawn), the Ki is over 1000 nM at D(2) dopamine receptor; over 1000 nM in [6]; 5.1 nM in assay [1]; over 1000 nM in assay [7]; 152 nM in assay [8]; over 1000 nM in assay [9]. For the same molecule, the minimal effective dose in the assay on Mus musculus was 3 mg/kg. The IC50 in assay [5] was determined as 55 nM.
For `COC1(C)c2ccccc2-c2ccc(C(=O)N=C(N)N)cc21.Cl` (stereo not drawn), the results for the Ki in assay [1] and in assay [2] were 3.3 nM and 1.4 nM, respectively. In the assay on Mus musculus, the minimal effective dose stood at 30 mg/kg.
With `NC(N)=NC(=O)c1ccc2c(c1)C1(CC1)c1ccccc1-2`, the Ki is 0.51 nM in assay [1] and 4.9 nM in assay [2]. Besides, in the assay on Mus musculus, the MED entry was “inactive”.
For the molecule `CCCCC1(O)c2ccccc2-c2ccc(C(=O)N=C(N)N)cc21` (stereo not drawn), the figures for the Ki in [1] and in assay [2] were 31 nM and over 100 nM, respectively.
In turn, `NC(N)=NC(=O)c1ccc2c(c1)[C@]1(CCCO1)c1ccccc1-2` registered a Ki in assay [1] of 2.7 nM. The inhibition entry in the assay on Cavia porcellus [3] is “Dose-dependent effect”. Besides, the inhibition result in the assay on Cavia porcellus [4] was “Active”. Besides, in assay [5], the IC50 was 35 nM.
